Consider 3 molecules from PMC8347172, “Optimization and Validation of an In Vitro Standardized Glycogen Phosphorylase Activity Assay” (Molecules, 2021).

The target of data set [1] is T1, rabbit muscle glycogen phosphorylase a (GPa) (Oryctolagus cuniculus, UniProt P00489).
T1 construct: gene PYGM
T1 sequence (P00489 2-843): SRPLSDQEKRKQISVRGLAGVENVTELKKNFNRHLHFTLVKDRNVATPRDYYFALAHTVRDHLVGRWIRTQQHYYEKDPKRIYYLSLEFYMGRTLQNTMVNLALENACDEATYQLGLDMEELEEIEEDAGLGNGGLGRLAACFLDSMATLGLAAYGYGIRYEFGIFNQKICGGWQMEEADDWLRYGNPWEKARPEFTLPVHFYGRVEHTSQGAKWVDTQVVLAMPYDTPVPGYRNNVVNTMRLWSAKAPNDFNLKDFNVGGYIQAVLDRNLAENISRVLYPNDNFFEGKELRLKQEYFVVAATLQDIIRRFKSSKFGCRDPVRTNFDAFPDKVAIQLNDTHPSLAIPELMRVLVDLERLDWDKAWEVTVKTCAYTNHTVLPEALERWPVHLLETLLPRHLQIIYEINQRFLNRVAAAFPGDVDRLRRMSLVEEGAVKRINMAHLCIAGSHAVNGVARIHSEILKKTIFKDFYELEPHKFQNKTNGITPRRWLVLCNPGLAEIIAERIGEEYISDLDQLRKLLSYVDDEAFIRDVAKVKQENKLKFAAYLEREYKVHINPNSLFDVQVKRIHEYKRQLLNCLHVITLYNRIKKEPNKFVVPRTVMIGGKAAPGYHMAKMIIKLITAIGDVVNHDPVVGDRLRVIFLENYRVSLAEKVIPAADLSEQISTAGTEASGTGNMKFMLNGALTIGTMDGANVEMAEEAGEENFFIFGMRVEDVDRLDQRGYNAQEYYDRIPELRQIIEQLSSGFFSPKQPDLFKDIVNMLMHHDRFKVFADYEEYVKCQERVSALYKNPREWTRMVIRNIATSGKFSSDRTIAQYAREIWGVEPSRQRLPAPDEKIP
Put plainly: colorimetric phosphate release assay (BIOMOL Green), glycogen synthesis direction, […] °C, no glucose. It is filed as biochemical.

Data set [2] has as its target T1, rabbit muscle glycogen phosphorylase a (GPa). Put plainly: colorimetric phosphate release assay (BIOMOL Green); percent inhibition at […], […] °C. It is filed as biochemical.
Substrate in data set [3]: O=P(O)(O)O[C@H]1O[C@H](CO)[C@@H](O)[C@H](O)[C@H]1O
Put plainly: purified protein.

Regarding `CN(C)C(=O)[C@H](O)[C@H](Cc1ccccc1)NC(=O)c1cc2cc(Cl)ccc2[nH]1` [CP-91149, 5-chloro-N-[(1S,2R)-3-(dimethylamino)-2-hydroxy-3-oxo-1-(phenylmethyl)propyl]-1H-indole-2-carboxamide], the IC50 in data set [1] is 580 ± 90 nM.
Regarding `O=c1oc2c(O)c(O)cc3c(=O)oc4c(O)c(O)cc1c4c23` [ellagic acid], the “% inhibition at 100 μM” value in data set [2] is listed as 40.6 ± 4.5.

B1: rabbit muscle glycogen phosphorylase a (GPa) (Oryctolagus cuniculus) (protein)
chain: SRPLSDQEKRKQISVRGLAGVENVTELKKNFNRHLHFTLVKDRNVATPRDYYFALAHTVRDHLVGRWIRTQQHYYEKDPKRIYYLSLEFYMGRTLQNTMVNLALENACDEATYQLGLDMEELEEIEEDAGLGNGGLGRLAACFLDSMATLGLAAYGYGIRYEFGIFNQKICGGWQMEEADDWLRYGNPWEKARPEFTLPVHFYGRVEHTSQGAKWVDTQVVLAMPYDTPVPGYRNNVVNTMRLWSAKAPNDFNLKDFNVGGYIQAVLDRNLAENISRVLYPNDNFFEGKELRLKQEYFVVAATLQDIIRRFKSSKFGCRDPVRTNFDAFPDKVAIQLNDTHPSLAIPELMRVLVDLERLDWDKAWEVTVKTCAYTNHTVLPEALERWPVHLLETLLPRHLQIIYEINQRFLNRVAAAFPGDVDRLRRMSLVEEGAVKRINMAHLCIAGSHAVNGVARIHSEILKKTIFKDFYELEPHKFQNKTNGITPRRWLVLCNPGLAEIIAERIGEEYISDLDQLRKLLSYVDDEAFIRDVAKVKQENKLKFAAYLEREYKVHINPNSLFDVQVKRIHEYKRQLLNCLHVITLYNRIKKEPNKFVVPRTVMIGGKAAPGYHMAKMIIKLITAIGDVVNHDPVVGDRLRVIFLENYRVSLAEKVIPAADLSEQISTAGTEASGTGNMKFMLNGALTIGTMDGANVEMAEEAGEENFFIFGMRVEDVDRLDQRGYNAQEYYDRIPELRQIIEQLSSGFFSPKQPDLFKDIVNMLMHHDRFKVFADYEEYVKCQERVSALYKNPREWTRMVIRNIATSGKFSSDRTIAQYAREIWGVEPSRQRLPAPDEKIP
Consider B1, for which the Km in data set [3] came out at 150 ± 30 µM.

One may read the IC50 as the point on the concentration scale where inhibition reaches its midpoint. The low end stands for greater potency in that assay, the high end for weaker potency in that assay. One may read the Km as the substrate concentration at which the rate is half of its maximum.
